# Assay results from patent publication US10329542B2, “HBV RNAse H purification and enzyme inhibitors” (Saint Louis University, priority 2012, dated 2019).
# Columns and labels:
# [1] = biological target: T1, HBV genotype D RNAseH (HRHPL) (Hepatitis B virus genotype D subtype ayw, UniProt P03156, INS679M); assay: Oligonucleotide-directed RNAseH cleavage assay, HBV genotype D; format: biochemical; conditions: for Activity vs. HBV Biochemical vs. gtD: class by concentration giving inhibition (10, 20, 60 μM)
# T1 construct: HRHPL contains HBV genotype D (Genbank V01460) polymerase residues 684-845; made in house; host or cells: E. coli BL21 codon+
# T1 sequence (P03156 680-832, added parts left off, stated change not applied): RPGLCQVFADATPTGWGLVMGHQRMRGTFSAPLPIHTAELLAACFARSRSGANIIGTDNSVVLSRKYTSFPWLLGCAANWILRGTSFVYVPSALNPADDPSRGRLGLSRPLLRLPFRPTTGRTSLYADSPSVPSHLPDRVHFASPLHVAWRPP
# Method: (§1) For the oligonucleotide-directed RNAseH cleavage assay (Gong et al., 2001), 6 μl protein extract (typical protein concentration 2.8 mg/ml) was mixed with 0.5 μg internally ^32P-labeled DRF+ RNA (nucleotides 2401-2605 of the duck HBV genome plus 60 nucleotides of flanking sequences from pBluescript) and 3 μg oligonucleotide D2507- or its corresponding negative control D2526+ on ice in 20 μl under the conditions in Table 1. Some reactions in FIG. 5 employed oligonucleotide D2543M-Sal or its D2453+ negative control as indicated. The reactions were incubated at 42° C. for 90 min. and terminated by addition of Laemmli protein loading buffer and boiling. The samples were resolved by 12% SDS-PAGE, the gels were stained with Coomassie blue to monitor protein loading, and labeled RNA was detected by autoradiography. Candidate inhibitors were dissolved in DMSO and added at the indicated concentrations during assembly of the reactions. Control reactions lacking the compounds contained DMSO as a vehicle control. The RNAseH autoradiograms were scanned and quantified with ImageJ.
# (§2) Oligonucleotide-directed RNAseH cleavage assays (Gong et al., 2001) were performed as described (Tavis et al., 2013). Briefly, HBV RNAseH extracts were mixed with a 264 nt-long internally ^32P-labeled RNA plus an excess of a complementary DNA oligonucleotide or its inverse-complement as a negative control in a final concentration of 65 mM Tris pH 8.0, 190 mM NaCl, 5 mM MgCl2, 5 mM dTT, 0.05% NP40, and 6% glycerol. βTJ was dissolved in DMSO and added at the indicated concentrations; the final concentration of DMSO in all reactions was 1%. The reactions were incubated at 42° C. for 90 min. and terminated by addition of Laemmli protein electrophoresis buffer. The samples were resolved by SDS-PAGE, labeled RNA was detected by autoradiography, the autoradiograms were scanned, and the RNA cleavage products were quantified with ImageJ (National Institutes of Health). IC50 values were calculated by non-linear regression using GraphPad Prism (GraphPad Software, Inc.).
# human RNAseH1 = biological target: T2, human RNAseH1 (Homo sapiens, UniProt O60930); assay: Oligonucleotide-directed RNAseH assay, recombinant human RNAseH1; format: biochemical; conditions: class by concentration giving inhibition (10, 20, 60 μM)
# T2 construct: hexahistidine (N); made in house; host or cells: E. coli BL21 codon+
# T2 sequence (O60930 1-286): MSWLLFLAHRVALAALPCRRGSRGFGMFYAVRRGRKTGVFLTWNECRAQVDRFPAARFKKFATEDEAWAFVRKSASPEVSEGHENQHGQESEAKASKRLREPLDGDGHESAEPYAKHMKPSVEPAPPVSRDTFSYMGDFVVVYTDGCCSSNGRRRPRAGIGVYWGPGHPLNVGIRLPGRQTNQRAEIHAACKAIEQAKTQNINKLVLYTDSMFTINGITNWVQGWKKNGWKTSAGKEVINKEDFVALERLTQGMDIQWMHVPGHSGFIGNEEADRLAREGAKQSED
# Method: as §1, with “ImageJ. The oligonucleotides were: D2526+([…]; SEQ ID NO:8), D2507-([…]; SEQ ID NO:9), D2453+([…]; SEQ ID NO:10), and D2543M-Sal ([…]; SEQ ID NO:11).” for “ImageJ.”
# Therefore, the inventors cloned the human RNAseH1 with an N-terminal hexahistidine tag, expressed it in E. coli, and purified the protein by nickel affinity chromatography. […] This enzyme was active in the oligonucleotide-directed and fluorescent RNAseH assays (FIG. 10B and data not shown). To determine how inhibition of human RNAseH1 compared to inhibition of the HBV RNAseH, the inventor titrated the RNAaseH1 enzyme to yield similar levels of activity as the HBV enzyme, and then the inventor directly compared the ability of compounds #8-12 to inhibit human RNAseH1 and HRHPL at 10 μM. […] Therefore, it is possible to inhibit the HBV RNAseH without inhibiting human RNAseH1.
# as §2
# HBV = HBV genomic replication assays (Table 2); format: cell-based, Hepatitis B virus; conditions: class by active concentration
# Method: Huh7 cells were maintained in Dulbecco's modified Eagle's medium with 10% fetal bovine serum at 37° C. in 5% CO2. Cells were seeded into 60 mm dishes and transfected at 70% confluency with 2.6 μg of plasmids using TransIT-LT1 (Mirus, Inc.). Test compounds were added the morning following transfection at 10 or 50 μM, and fresh medium containing the compounds was provided every 1-2 days. Four or five days post-transfection HBV cores were isolated by lysis of the cells in 10 mM Tris pH 7.5, 1 mM EDTA, 0.25% NP40, 50 mM NaCl, and 8% sucrose followed by sedimentation through a 30% sucrose cushion as described (Travis, et al., 1998). Viral DNAs were isolated from cytoplasmic core particle preparations by proteinase K digestion followed by phenol/chloroform extraction as described (Gong et al., 2001). Duplicate aliquots of the nucleic acids were treated with 2 U E. coli DNAse-free RNAseH (Invitrogen) at 37° C. for 30 min. or were mock treated. The nucleic acid samples were resolved by electrophoresis on 1.2% agarose gels and detected by Southern blotting with ^32P-labeled HBV DNA as a probe. […]
SMILES,Activity vs. HBV Biochemical vs. gtD [1],Activity vs. human RNAseH1 (human RNAseH1),further results
CC1COc2c(N3CCN(C)CC3)c(F)cc3c(=O)c(C(=O)O)cn1c23 (stereo not drawn) [Compound 68],− (− no inhibition at 60 μM),–,–
O=C(Nc1ccc(O)c(=O)cc1)c1ccccc1 [Compound 52],− (− no inhibition at 60 μM),− (− no inhibition at 60 μM),–
Cc1ccc2oc(=O)c(C#N)c(C)c2c1 [Compound 33],− (− no inhibition at 60 μM),–,–
CCOC(=O)c1sc(NC(=O)CSc2nccc(C)n2)c(C#N)c1C [Compound 27],− (− no inhibition at 60 μM),–,–
CCOC(=O)c1sc(NC(=O)CSc2ccc(Cl)cc2)c(C#N)c1C [Compound 37],− (− no inhibition at 60 μM),–,–
"Cn1c(C(C)(C)N)nc(C(=O)NCc2ccc(F)cc2)c(O)c1=O [Compound 77, reference compound]",− (− no inhibition at 60 μM),–,–
"O=Nc1ccc(O)c(=O)cc1 [Compound 50, 5-nitrosotropolone]",++ (++ inhibition at 20 μM),− (− no inhibition at 60 μM),"Activity vs. HBV Genomic Replication (HBV): + (+, activity detectable at >10 μM)"
"CC(C)=CCc1ccc(O)c(=O)cc1C(C)C [Compound 49, Nootkatin]",++ (++ inhibition at 20 μM),− (− no inhibition at 60 μM),–
CCOC(=O)c1sc(NC(=O)CSc2nnc[nH]2)c(C#N)c1C [Compound 28],− (− no inhibition at 60 μM),+ (+ inhibition at 60 μM),–
Cc1cc(C)c(OC(=O)c2ccc(Cl)cc2)c(=O)c(C)c1 [Compound 59],− (− no inhibition at 60 μM),+ (+ inhibition at 60 μM),–
"CCN1C[C@H](C)n2c(c(O)c3c(=O)n(Cc4ccc(F)c(Cl)c4)nc(C(=O)NC)c32)C1=O [Compound 74, reference compound]",− (− no inhibition at 60 μM),–,–
"O=C(Oc1cccccc1=O)c1ccc([N+](=O)[O-])cc1 [Compound 51, tropolone p-nitrobenzoate]",+ (+ inhibition at 60 μM),–,–
N#Cc1c(NC(=O)CSc2nnc(C3CC3)o2)sc2c1CCC2 [Compound 32],− (− no inhibition at 60 μM),–,–
"CC(C)S[C@@H]1O[C@H](CO)[C@H](O)[C@H](O)[C@H]1O [IPTG, reference compound]",–,–,"RNAseH activity of HRHPL relative to the DMSO vehicle control ([1]; irrelevant compounds at 10 μM, pooled): 52±9%"
N#Cc1c(NC(=O)CSc2nnc(Cc3ccccc3)o2)sc2c1CCCC2 [Compound 25],− (− no inhibition at 60 μM),–,–
CCOC(=O)c1cc2ccccc2n(O)c1=O [Compound 42],− (− no inhibition at 60 μM),+ (+ inhibition at 60 μM),–

SMILES,Activity vs. HBV Biochemical vs. gtD [1],Activity vs. human RNAseH1 (human RNAseH1),further results
Cc1cc(C(F)(F)F)c(C#N)c(=O)[nH]1 [Compound 19],− (− no inhibition at 60 μM),–,–
CCn1cc(C(=O)O)c(=O)c2cc3c(cc21)OCO3 [Compound 65],− (− no inhibition at 60 μM),–,–
CCOC(=O)c1sc(NC(=O)CSc2nc(C)cc(-c3ccccc3)n2)c(C#N)c1C [Compound 26],− (− no inhibition at 60 μM),–,–
"O=c1ccccc(Br)c1O [Compound 54, 3-bromotropolone]",− (− no inhibition at 60 μM),–,–
CC(=O)NC(CCc1ccc(Cl)c(Cl)c1)c1cccc(O)c(=O)c1 (stereo not drawn) [Compound 55],+ (+ inhibition at 60 μM),+ (+ inhibition at 60 μM),–
CCOC(=O)c1sc(NC(=O)CSc2nnc(-c3ccc(Cl)cc3)o2)c(C#N)c1C [Compound 24],− (− no inhibition at 60 μM),–,–
N#Cc1cc2ccccc2oc1=N [Compound 21],− (− no inhibition at 60 μM),–,–
O=C(Oc1cccccc1=O)c1ccc(Cl)cc1 [Compound 63],− (− no inhibition at 60 μM),–,–
"Cc1cc(C2CCCCC2)n(O)c(=O)c1 [Compound 41, Ciclopirox, reference compound]",− (− no inhibition at 60 μM),+ (+ inhibition at 60 μM),–
"O=c1cccccc1Cl [Compound 57, 2-chlorotropone]",− (− no inhibition at 60 μM),–,–
CCn1cc(C(=O)O)c(=O)c2ccc(C)nc21 [Compound 70],− (− no inhibition at 60 μM),–,–
Cc1ccc(S(=O)(=O)Oc2cccccc2=O)cc1 [Compound 61],− (− no inhibition at 60 μM),++ (++ inhibition at 20 μM),–
O=C(Oc1cccccc1=O)c1ccccc1 [Compound 62],+ (+ inhibition at 60 μM),–,–
O=C(O)c1cn(C2CC2)c2cc(Cl)c(F)cc2c1=O [Compound 66],− (− no inhibition at 60 μM),–,–
Cc1cc(C)n(O)c(=O)c1C#N [Compound 44],− (− no inhibition at 60 μM),− (− no inhibition at 60 μM),–
